These results are taken from patent US20050080090A1, “Naphthalene derivatives” (priority 1993, published 2005).

Where a name gives a salt, the structure may show the parent alone.

By melting point is commonly meant the temperature of the solid-liquid transition. Regarding `CN1CCC(c2cccc3ccc(N)cc23)CC1`, the melting point lay within 169.5 to 171 °C.

`CN1CCN(c2cccc3ccc(NC(=O)c4ccc(O)cc4)cc23)CC1` [Example 10, 7-(4-Hydroxybenzamido)-1-(4-methyl-1-piperazinyl)-naphthalene]: the melting point was in the range of 156 to 160 °C.

In turn, `CN1CCN(c2cccc3ccc(Nc4ncccc4[N+](=O)[O-])cc23)CC1` [Example 25, 7-(3-Nitro-2-pyridinylamino)-1-(4-methyl-1-piperazinyl)-naphthalene] registered a melting point of 127.5 to 129 °C.

In the case of `CN1CCN(c2cccc3ccc(Nc4ncccc4N)cc23)CC1` (hydrate or solvate) [Example 29, 7-(3-Amino-2-pyridylamino)-1-(4-methyl-1-piperazinyl)-naphthalene], the melting point is 198 to 200 °C.

The compound `CCCN1CCN(c2cccc3ccc(NC(=O)c4ccc(Cl)cc4)cc23)CC1` [Example 66, 7-(4-Chlorobenzamido)-1-(4-propyl-1-piperazinyl)-naphthalene] showed a melting point of 130 to 132 °C.

`CCN1CCN(c2cccc3ccc(NC(=O)c4ccc(Cl)cc4)cc23)CC1` [Example 67, 7-(4-Chlorobenzamido)-1-(4-ethyl-1-piperazinyl)-naphthalene] returned a melting point of 173 to 174.5 °C.

Turning to `CN1CCN(c2cccc3ccc(NC(=O)c4cccc([N+](=O)[O-])c4)cc23)CC1` [Example 4, 7-(3-Nitrobenzamido)-1-(4-methyl-1-piperazinyl)-naphthalene], the melting point fell in the range of 182 to 184 °C.

Compound `CN1CCN(c2cccc3ccc(-n4cnc5ncccc54)cc23)CC1` [Example 35, 7-(Imidazolo[4,5-b]pyridin-1-yl)-1-(4-methyl-1-piperazinyl)-naphthalene] had a melting point of 107 to 112 °C.

As to `CN1CCN(c2cccc3ccc(NC(=O)C(F)(F)F)cc23)CC1`, the melting point was 159 to 160 °C.

On to `Nc1ccc2cccc(N3CCNCC3)c2c1`, for which the melting point fell in the range of 184 to 186 °C.

`CN1CCN(c2cccc3ccc(OC(=O)c4ccc(Cl)cc4)cc23)CC1` [Example 53, 7-(4-Chlorobenzoyloxy)-1-(4-methyl-1-piperazinyl)-naphthalene] registered a melting point of 110 to 111 °C.

On to `CN1CCC(c2cccc3ccc(NC(=O)c4ccccc4)cc23)C1` (stereo not shown) [Example 69, 7-Benzamido-1-(1-methyl-3-pyrrolidinyl)-naphthalene], for which the melting point was in the range of 137 to 145 °C.

The compound `CN1CCN(c2cccc3ccc(-n4cnc5ccccc54)cc23)CC1` [Example 37, 7-(Benzimidazol-1-yl)-1-(4-methyl-1-piperazinyl)-naphthalene] showed a melting point of 148 to 150 °C.

On to `CN1CCN(c2cccc3ccc(NC(=O)OCc4ccccc4)cc23)CC1` [Example 20, 7-(Benzyloxycarbonylamino)-1-(4-methyl-1-piperazinyl)-naphthalene], for which the melting point is 143 to 144 °C.

`CN1CCN(c2cccc3ccc(OCc4cccc(Cl)c4)cc23)CC1` [Example 54, 7-(3-Chlorobenzyloxy)-1-(4-methyl-1-piperazinyl)-naphthalene] had a melting point of 67.5 to 68 °C.

For the compound `c1cc(N2CCNCC2)c2cc(-n3nnc4ncccc43)ccc2c1` (as salt: hydrochloride), the melting point is > 250 °C.

The compound `CN1CCN(c2cccc3ccc(NC(=O)c4ccc(Cl)cc4)cc23)CC1` [Example 8, 7-(4-Chlorobenzamido)-1-(4-methyl-1-piperazinyl)-naphthalene] showed a melting point of 174 to 175 °C.

`CN1CCN(c2cccc3ccc(OCc4ccc(Cl)c(Cl)c4)cc23)CC1` [Example 50, 7-(3,4-Dichlorobenzyloxy)-1-(4-methyl-1-piperazinyl)-naphthalene] displayed a melting point of 113 to 114 °C.

`CN1CCN(c2cccc3ccc(C(=O)c4ccccc4)cc23)CC1` [Example 43, 7-Benzoyl-1-(4-methyl-1-piperazinyl)naphthalene] yielded a melting point of 124 to 124.5 °C.

Regarding `c1cc(N2CCNCC2)c2cc(-n3cnc4ncccc43)ccc2c1` (as salt: hydrochloride), the melting point is > 250 °C.

Consider `CN1CCN(c2cccc3ccc(NCc4ccccc4)cc23)CC1` [Example 14, 7-(Benzylamino)-1-(4-methyl-1-piperazinyl)-naphthalene], for which the melting point is 115 to 117 °C.

Compound `CC(=O)Nc1ccc2cccc(N3CCN(C)CC3)c2c1` had a melting point of 177 to 180 °C.

As to `CN1CCN(c2cccc3ccc(Nc4ncccc4NC(=O)c4ccccc4)cc23)CC1` [Example 30, 7-(3-Benzamido-2-pyridylamino)-1-(4-methyl-1-piperazinyl)-naphthalene], the melting point fell in the range of 205 to 207 °C.

`CN1CCN(c2cccc3ccc(OCc4ccccc4)cc23)CC1` [Example 49, 7-(Benzyloxy)-1-(4-methyl-1-piperazinyl)-naphthalene] showed a melting point of 81.5 to 82.5 °C.

In turn, `CN1CCN(c2cccc3ccc(NC(=O)c4cc([N+](=O)[O-])cc([N+](=O)[O-])c4)cc23)CC1` had a melting point of 254 to 256 °C.

For `CN1CCCC(c2cccc3ccc(N)cc23)C1` (stereo not shown), the melting point fell in the range of 117 to 120 °C.

Regarding `CN1CCCC(c2cccc3ccc(-n4cnc5ncccc54)cc23)C1` (stereo not shown) (as salt: HCl) [Example 63, 7-(Imidazolo[4,5-b]pyridin-1-yl)-1-(1-methyl-3-piperidinyl)-naphthalene], the melting point was > 250 °C.

Compound `O=C(Nc1ccc2cccc(C[C@H]3CCCN3)c2c1)c1ccc(Cl)cc1` (as salt: HCl) [Example 71, 7-(4-Chlorobenzamido)-1-(pyrrolidin-2-(R)-ylmethyl)-naphthalene] showed a melting point of 230 to 231.5 °C.

On to `CC(=O)Nc1cccnc1Nc1ccc2cccc(N3CCN(C)CC3)c2c1` [Example 31, 7-(3-Acetamido-2-pyridylamino)-1-(4-methyl-1-piperazinyl)-naphthalene], for which the melting point was 110 to 114 °C (dec.).

`CN1CCN(c2cccc3ccc(NC(=O)Nc4ccccc4)cc23)CC1` [Example 19, 7-(Phenylaminocarbonylamino)-1-(4-methyl-1-piperazinyl)-naphthalene]: the melting point was 213 to 214 °C.

With `CN1CCN(c2cccc3ccc(NCc4cccc5ccccc45)cc23)CC1` [Example 13, 7-(1-Naphthylmethylamino)-1-(4-methyl-1-piperazinyl)-naphthalene], the melting point was in the range of 140 to 141 °C.

`CN1CCCC(c2cccc3ccc(NC(=O)c4ccccc4)cc23)C1` (stereo not shown) (as salt: HCl) [Example 64, 7-Benzamido-1-(1-methyl-3-piperidinyl)-naphthalene]: the melting point is 140 to 170 °C.

Regarding `CN1CCN(c2cccc3ccc(Nc4ccc([N+](=O)[O-])cc4[N+](=O)[O-])cc23)CC1`, the melting point is 153 to 154 °C.

`O=C(Nc1ccc2cccc(N3CCNCC3)c2c1)c1ccccc1` returned a melting point of 141.5 to 144 °C.

Compound `CN1CCN(c2cccc3ccc(C(=O)NCc4ccc(Cl)cc4)cc23)CC1` [Example 80, 8-(4-Methylpiperazin-1-yl)naphthalene-2-carboxylic Acid 4-chlorobenzylamide] returned a melting point of 72 to 74 °C.

In turn, `CN1CCN(c2cccc3ccc(Nc4nc(Cc5ccccc5)cs4)cc23)CC1` [Example 24, 4-Benzyl-2-[-1-(4-methyl-1-piperazinyl)-7-naphthylamino]-thiazole] yielded a melting point of 157 to 160 °C.

In turn, `CN1CCN(c2cccc3ccc(Nc4ccc([N+](=O)[O-])cn4)cc23)CC1` [Example 27, 7-(5-Nitro-2-pyridylamino)-1-(4-methyl-1-piperazinyl)-naphthalene] returned a melting point of 121 to 125 °C.

Compound `CNS(=O)(=O)c1cccc(-c2ccc3cccc(N4CCN(C)CC4)c3c2)c1` [Example 41, 7-(3-Methylaminosulfonylphenyl)-1-(4-methyl-1-piperazinyl)naphthalene] showed a melting point of 147.5 to 148 °C.

Regarding `COc1cccc(-c2ccc3cccc(N4CCN(C)CC4)c3c2)c1` (as salt: hydrochloride) [Example 81, 7-(3-Methoxyphenyl)-1-(4-methylpiperazin-1-yl)naphthalene], the melting point lay in the range of 236 to 238 °C.

As for `CN1CCN(c2cccc3ccc(-c4cccc(NS(C)(=O)=O)c4)cc23)CC1` [Example 42, 7-(3-Methylsulfonylaminophenyl)-1-(4-methyl-1-piperazinyl)-naphthalene], the melting point is 100 to 101 °C.

Turning to `CN1CCN(c2cccc3ccc(Nc4ccccc4[N+](=O)[O-])cc23)CC1` [Example 28, 7-(2-Nitrophenylamino)-1-(4-methyl-1-piperazinyl)-naphthalene], the melting point is 87 to 94 °C.

As to `CN1CCN(c2cccc3ccc(OC(=O)c4ccccc4)cc23)CC1` [Example 52, 7-Benzoyloxy-1-(4-methyl-1-piperazinyl)-naphthalene], the melting point lay in the range of 82 to 82.5 °C.

Compound `CN1CCN(c2cccc3ccc(NC(=O)c4cccc(Cl)c4)cc23)CC1` [Example 6, 7-(3-Chlorobenzamido)-1-(4-methyl-1-piperazinyl)-naphthalene] returned a melting point of 147 to 148 °C.

In turn, `CN1CCN(c2cccc3ccc(NC(=O)c4cccc(C#N)c4)cc23)CC1` [Example 9, 7-(3-Cyanobenzamido)-1-(4-methyl-1-piperazinyl)-naphthalene] displayed a melting point of 220 to 222 °C.

For the compound `Cl.O=CNc1ccc2cccc(C[C@H]3CCCN3)c2c1`, the melting point was 223.5 to 224 °C.

On to `CN1CCN(c2cccc3ccc(OCc4ccc(Cl)cc4)cc23)CC1` [Example 40, 7-(4-Chlorobenzyloxy)-1-(4-methyl-1-piperazinyl)-naphthalene], for which the melting point is 111.5 to 112 °C.

As to `CN1CCN(c2cccc3ccc(OS(=O)(=O)C(F)(F)F)cc23)CC1` [Example 55, 7-Trifluoromethylsulfonyloxy-1-(4-methyl-1-piperazinyl)-naphthalene], the melting point is 70 to 71 °C.

Compound `CN1CCN(c2cccc3ccc(OCc4ccc(C(F)(F)F)cc4)cc23)CC1` (as salt: hydrochloride) [Example 51, 7-(4-Trifluoromethylbenzyloxy)-1-(4-methyl-1-piperazinyl)-naphthalene] gave a melting point of 205 to 206 °C.

`CN1CCN(c2cccc3ccc(N)cc23)CC1` showed a melting point of 157 to 159 °C.
